Reference: patent US7476753B2, “3-aryl-2-cyano-3-hydroxy-acrylic acid derivatives” (Ciba Specialty Chemicals Corporation, priority 2003, dated 2009)
In brackets after ≈: the same amount, converted by molar mass. Like-named read-outs stand apart in the source and are kept apart here.

Assays:
[1] = test system: F. nucleatum subsp. polymorphum ATCC10953; test: MIC vs. oral germs, broth dilution method; assay type: cell-based, Fusobacterium nucleatum subsp. polymorphum; conditions: Fusobacterium nucleatum
Source text: (§1) b) Determination of MIC vs. different oral germs in the broth dilution method • Medium: Thioglycolate Bouillon with Hemin and Menadion Columbia Bouillon with Hemin and Menadion für P. gingivalis und P. nigrescens • diluent: the corresponding amount of the substances was pippeted directly • Examples of Test organisms: • Actinobacillus actinomycetemcomitans ATCC43718 • Streptococcus gordonii ATCC10558 • Streptococcus mutans ATCC33402 • Actinomyces viscosus ATCC43146 • Fusobacterium nucleatum subsp. polymorphum ATCC1095 • Porphyromonas gingivalis ATCC3277 • Prevotella nigrescens ATCC33563 • Incubation: 7-10 days at 37° C. under anaerobic conditions, resp. 24 h aerobically with 10% CO2 for Streptococci und A. actinomycetemcomitans • Test solution: Stock solutions in ethanol with 1500 ppm (w/w) are used from all test substances
(§2) Bacteria are taken from blood agar plates with cotton swabs and a suitable O.D. is adjusted in the corresponding medium (McFarland 0.5). This solution is used for F. nucleatum and P. nigrescens in undiluted state, for the other strains a dilution of 1:20 is used. To each 2 ml of active ingredient containing solution 0.1 ml of the bacteria culture is added and incubated as described above.

A. viscosus ATCC43146 = test: MIC vs. oral germs, broth dilution method; assay type: cell-based, Actinomyces viscosus; conditions: Actinomyces viscosus
Source text: as §1, §2

S. mutans ATCC33402 = test: MIC vs. oral germs, broth dilution method; assay type: cell-based, Streptococcus mutans; conditions: Streptococcus mutans, read-out: MHK (MIC) S. mutans ATCC33402
Source text: as §1, §2

[2] = test system: Proteus vulgaris ATCC 6896; test: MIC, Agar incorporation test; assay type: cell-based; conditions: Proteus vulgaris, ATCC6896, 24 hours at 37° C.
Experimental: (§3) 0.3 ml of each dilution step is mixed with 15 ml of nutrient medium while the latter is still liquid. After the nutrient medium has solidified, 10 μl of each of the following organism dilutions of the test strains in 0.85% NaCl solution are spotted onto the agar medium.
(§4) The plates are incubated during 24 hours at 37° C. and then the highest dilution (lowest concentration) of the test substance at which growth is just no longer discernible (corresponds to the MIC) is determined.

[3] = test system: Corynebacterium xerosis ATCC 373; test: MIC, Agar incorporation test; assay type: cell-based; conditions: Corynebacterium xerosis, ATCC373, 24 hours at 37° C.
Experimental: as §3, §4

[4] = test system: Propionibacterium acnes ATCC 6919; test: MIC, Agar incorporation test; assay type: cell-based; conditions: Cutibacterium acnes, ATCC6919, 24 hours at 37° C.
Experimental: as §3, §4

[5] = test system: Pseudomonas aeruginosa ATCC 15442; test: MIC, Agar incorporation test; assay type: cell-based; conditions: Pseudomonas aeruginosa, ATCC15442, 24 hours at 37° C.
Experimental: as §3, §4

[6] = test system: Staphylococcus aureus ATCC 6538; test: MIC, Agar incorporation test; assay type: cell-based; conditions: Staphylococcus aureus, ATCC6538, 24 hours at 37° C.
Experimental: as §3, §4

[7] = test system: Escherischia coli ATCC 10536; test: MIC, Agar incorporation test; assay type: cell-based; conditions: 24 hours at 37° C.
Experimental: as §3, §4

[8] = test system: Klebsiella pneumoniae ATCC 4352; test: MIC, Agar incorporation test; assay type: cell-based; conditions: Klebsiella pneumoniae, ATCC4352, 24 hours at 37° C.
Experimental: as §3, §4

[9] = test system: Aspergillus niger ATCC 6275; test: MIC, Agar incorporation test; assay type: cell-based; conditions: Aspergillus niger, ATCC6275
Experimental: as §3, §4

[10] = test system: Staphylococcus epidermidis ATCC 12228; test: MIC, Agar incorporation test; assay type: cell-based; conditions: Staphylococcus epidermidis, ATCC12228, 24 hours at 37° C.
Experimental: as §3, §4

[11] = test system: C. minutissimum ATCC 23348; test: MIC, Agar incorporation test; assay type: cell-based; conditions: Corynebacterium minutissimum, ATCC23348, 24 hours at 37° C.
Experimental: as §3, §4

S. gordonii ATCC10558 = test: MIC vs. oral germs, broth dilution method; assay type: cell-based, Streptococcus gordonii; conditions: Streptococcus gordonii, read-out: MHK (MIC) S. gordonii ATCC10558
Source text: as §1, §2

P. nigrescens ATCC33563 = test: MIC vs. oral germs, broth dilution method; assay type: cell-based, Prevotella nigrescens; conditions: Prevotella nigrescens
Source text: as §1, §2

[12] = test system: Actinomyces viscosus ATCC 43146; test: Automatic MIC-Screening, broth dilution method; assay type: cell-based; conditions: micro titer plates, 37° C., 24 hours, tested 120 to 3.75 μg/ml
Experimental: (§5) Determination of the Minimum Inhibitory Concentration (MIC Value)
(§6) 8 μl of each dilution step is mixed with 192 μl of nutrient medium in micro titer plates. The plates are incubated at 37° C. for 24 hours and then the highest dilution (lowest concentration) of the test substance at which growth is just no longer discernible is determined (corresponds to the MIC).

[13] = test system: Corynebacterium sp. (Corynebacterium xerosis ATCC 373 oder C. minutissimum ATCC 23348); test: Automatic MIC-Screening, broth dilution method; assay type: cell-based; conditions: micro titer plates, 37° C., 24 hours, tested 120 to 3.75 μg/ml
Experimental: as §5, §6

[14] = test system: Staphylococcus aureus ATCC 6538; test: Automatic MIC-Screening, broth dilution method; assay type: cell-based; conditions: micro titer plates, 37° C., 24 hours, tested 120 to 3.75 μg/ml
Experimental: as §5, §6

P. gingivalis ATCC3277 = test: MIC vs. oral germs, broth dilution method; assay type: cell-based, Porphyromonas gingivalis; conditions: Porphyromonas gingivalis
Source text: as §1, §2

[15] = test system: Candida albicans ATCC 10231; test: MIC, Agar incorporation test; assay type: cell-based; conditions: Candida albicans, ATCC10231, 72 h, Sabouraud 4% glucose agar, 3 days at 28° C.
Experimental: 0.3 ml of each dilution step is mixed with 15 ml of nutrient medium while the latter is still liquid. After the nutrient medium has solidified, 10 μl of each of the following organism dilutions of the test strains in 0.85% NaCl solution are spotted onto the agar medium. […]

[16] = test system: A. actinomycetemcomitans ATCC43718; test: MIC vs. oral germs, broth dilution method; assay type: cell-based, Actinobacillus actinomycetemcomitans; conditions: Aggregatibacter actinomycetemcomitans, read-out: MHK (MIC) A. actinomycetemcomitans ATCC43718
Source text: as §1, §2

[17] = ATCC10953, read-out: MHK (MIC) F. nucleatum subsp. polymorphum ATCC10953
[18] = ATCC43146, read-out: MHK (MIC) A. viscosus ATCC43146
[19] = ATCC33563, read-out: MHK (MIC) P. nigrescens ATCC33563
[20] = ATCC3277, read-out: MHK (MIC) P. gingivalis ATCC3277

Compound | MIC [1, 17] [µg/mL] | MIC (A. viscosus ATCC43146; [18]) [µg/mL] | MIC (S. mutans ATCC33402; ATCC33402, 24 h) [µg/mL] | MIC [2] [µg/mL] | MIC [3] [µg/mL] | MIC [4] [µg/mL] | MIC [5] [µg/mL] | MIC [6] [µg/mL] | MIC [7] [µg/mL] | MIC [8] [µg/mL] | MIC [9] [µg/mL] | MIC [10] [µg/mL] | MIC (S. gordonii ATCC10558; ATCC10558, 24 h) [µg/mL] | MIC (P. nigrescens ATCC33563; [19]) [µg/mL] | MIK (MIC) A. viscosus [12] [μγ/ml] | MIK (MIC) Corynebacterium sp. [13] [μγ/ml] | MIK (MIC) S. aureus [14] [μγ/ml] | MIC (P. gingivalis ATCC3277; [20]) [µg/mL] | MIC [15] [µg/mL] | MIC ([16]; ATCC43718, 24 h) [µg/mL] | other results
CCCCOC(=O)/C(C#N)=C(\O)c1ccc(-c2ccccc2)cc1 [(101b), 3-biphenyl-4-yl-2-cyano-3-hydroxy-acrylic acid butylester] | ≤ 0.94 | 3.75 (≈ 11.7 µM) | 5.63 (≈ 17.5 µM) | > 100 | 3.13 (≈ 9.74 µM) | 12.5 (≈ 38.9 µM) | > 100 | 6.25 (≈ 19.4 µM) | > 100 | > 100 | > 100 | 6.25 (≈ 19.4 µM) | 3.75 (≈ 11.7 µM) | > 15 | 7.5 | 15 | 7.5 | 3.75 (≈ 11.7 µM) | > 100 | 15 (≈ 46.7 µM) | MIC [11]: 12.5 µg/mL (≈ 38.9 µM)
CC(C)COC(=O)/C(C#N)=C(\O)c1ccc(-c2ccccc2)cc1 [(101c), 3-biphenyl-4-yl-2-cyano-3-hydroxy-acrylic acid isobutylester] | 7.5 (≈ 23.3 µM) | 7.5 (≈ 23.3 µM) | 5.63 (≈ 17.5 µM) | > 50 | 3.13 (≈ 9.74 µM) | 12.5 (≈ 38.9 µM) | > 50 | 12.5 (≈ 38.9 µM) | > 50 | > 50 | > 50 | 6.25 (≈ 19.4 µM) | 3.75 (≈ 11.7 µM) | > 15 | 7.5 | 7.5 | 7.5 | 7.5 (≈ 23.3 µM) | > 50 | 15 (≈ 46.7 µM) | MIC [11]: 12.5 µg/mL (≈ 38.9 µM)
CCCCC(CC)COC(=O)C(C#N)=C(O)c1ccc(-c2ccccc2)cc1 (stereo not drawn) [(101e), 3-biphenyl-4-yl-2-cyano-3-hydroxy-acrylic acid 2-ethyl-hexylester] | > 15 | < 0.94 | < 0.94 |  | 1.9 (≈ 5.03 µM) | 0.94 (≈ 2.49 µM) | > 500 | 1.9 (≈ 5.03 µM) | > 500 |  |  | 1.9 (≈ 5.03 µM) | < 0.94 | > 15 |  |  |  | 15 (≈ 39.7 µM) | > 500 | > 15 | 
CCCCCCCCOC(=O)/C(C#N)=C(\O)c1ccc(-c2ccc(/C(O)=C(\C#N)C(=O)OCCCCCCCC)cc2)cc1 [(102a)] |  |  |  |  |  |  |  |  |  |  |  |  |  |  | <3.75 | >120 | <3.75 |  |  |  | MIC ([1]; ATCC10953, broth dilution, 7-10 days at 37° C., anaerobic, read-out: MHK (MIC) F. nucleatum subsp. polymorphum ATCC10953): ≥ 15 µg/mL; MIC (A. viscosus ATCC43146; ATCC43146, broth dilution, 7-10 days at 37° C., anaerobic, read-out: MHK (MIC) A. viscosus ATCC43146): 7.5 µg/mL (≈ 12.5 µM); MIC (S. mutans ATCC33402; ATCC33402, broth dilution, 24 h aerobically with 10% CO2, 37° C.): > 15 µg/mL; MIC (S. gordonii ATCC10558; ATCC10558, broth dilution, 24 h aerobically with 10% CO2, 37° C.): 15 µg/mL (≈ 25 µM); MIC (P. nigrescens ATCC33563; ATCC33563, broth dilution, Columbia Bouillon with Hemin and Menadion, 7-10 days at 37° C., anaerobic, read-out: MHK (MIC) P. nigrescens ATCC33563): > 15 µg/mL; MIC (P. gingivalis ATCC3277; ATCC3277, broth dilution, Columbia Bouillon with Hemin and Menadion, 7-10 days at 37° C., anaerobic, read-out: MHK (MIC) P. gingivalis ATCC3277): > 15 µg/mL; MIC ([16]; ATCC43718, broth dilution, 24 h aerobically with 10% CO2, 37° C.): > 15 µg/mL
